The results in this text go back to patent US6685617B1, “Inhibitors of α4β1 mediated cell adhesion” (Pharmacia & Upjohn Company, priority 1998, dated 2004).

Molecules are shown by their SMILES.

In this experiment the target is T1, α4β1 integrin (Jurkat T-cell adhesion to IL-1 stimulated endothelial cell monolayers) (Homo sapiens, UniProt P05556+P13612).
T1 construct: a T-cell line, Jurkat, known to express the α4β1 integrin; host or cells: Jurkat T-cell line
T1 sequence (P13612 34-1032): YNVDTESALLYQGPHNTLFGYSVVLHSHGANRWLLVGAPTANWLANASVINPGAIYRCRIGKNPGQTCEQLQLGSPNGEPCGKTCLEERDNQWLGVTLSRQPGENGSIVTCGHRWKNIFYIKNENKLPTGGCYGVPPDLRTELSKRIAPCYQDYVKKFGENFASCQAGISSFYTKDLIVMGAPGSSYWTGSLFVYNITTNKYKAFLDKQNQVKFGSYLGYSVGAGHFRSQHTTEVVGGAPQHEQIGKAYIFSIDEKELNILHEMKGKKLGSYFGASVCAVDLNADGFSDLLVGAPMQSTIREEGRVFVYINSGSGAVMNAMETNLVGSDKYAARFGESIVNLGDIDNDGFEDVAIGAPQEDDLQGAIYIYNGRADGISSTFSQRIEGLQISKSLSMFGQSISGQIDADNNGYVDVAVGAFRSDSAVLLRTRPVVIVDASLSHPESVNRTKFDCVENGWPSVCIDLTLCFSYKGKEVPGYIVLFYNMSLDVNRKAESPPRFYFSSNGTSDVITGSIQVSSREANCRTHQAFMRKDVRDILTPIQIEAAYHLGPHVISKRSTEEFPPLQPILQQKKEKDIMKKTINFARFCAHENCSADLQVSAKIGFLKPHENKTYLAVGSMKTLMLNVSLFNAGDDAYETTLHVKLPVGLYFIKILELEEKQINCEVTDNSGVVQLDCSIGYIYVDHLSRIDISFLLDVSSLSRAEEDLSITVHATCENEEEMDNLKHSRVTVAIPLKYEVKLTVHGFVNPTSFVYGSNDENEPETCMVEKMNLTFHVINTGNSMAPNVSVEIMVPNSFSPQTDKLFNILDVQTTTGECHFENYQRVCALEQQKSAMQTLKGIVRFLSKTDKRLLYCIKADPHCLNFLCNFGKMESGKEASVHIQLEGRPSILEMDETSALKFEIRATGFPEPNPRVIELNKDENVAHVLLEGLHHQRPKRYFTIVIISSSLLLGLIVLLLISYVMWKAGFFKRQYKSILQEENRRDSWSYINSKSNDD
T1 sequence (P05556 21-798): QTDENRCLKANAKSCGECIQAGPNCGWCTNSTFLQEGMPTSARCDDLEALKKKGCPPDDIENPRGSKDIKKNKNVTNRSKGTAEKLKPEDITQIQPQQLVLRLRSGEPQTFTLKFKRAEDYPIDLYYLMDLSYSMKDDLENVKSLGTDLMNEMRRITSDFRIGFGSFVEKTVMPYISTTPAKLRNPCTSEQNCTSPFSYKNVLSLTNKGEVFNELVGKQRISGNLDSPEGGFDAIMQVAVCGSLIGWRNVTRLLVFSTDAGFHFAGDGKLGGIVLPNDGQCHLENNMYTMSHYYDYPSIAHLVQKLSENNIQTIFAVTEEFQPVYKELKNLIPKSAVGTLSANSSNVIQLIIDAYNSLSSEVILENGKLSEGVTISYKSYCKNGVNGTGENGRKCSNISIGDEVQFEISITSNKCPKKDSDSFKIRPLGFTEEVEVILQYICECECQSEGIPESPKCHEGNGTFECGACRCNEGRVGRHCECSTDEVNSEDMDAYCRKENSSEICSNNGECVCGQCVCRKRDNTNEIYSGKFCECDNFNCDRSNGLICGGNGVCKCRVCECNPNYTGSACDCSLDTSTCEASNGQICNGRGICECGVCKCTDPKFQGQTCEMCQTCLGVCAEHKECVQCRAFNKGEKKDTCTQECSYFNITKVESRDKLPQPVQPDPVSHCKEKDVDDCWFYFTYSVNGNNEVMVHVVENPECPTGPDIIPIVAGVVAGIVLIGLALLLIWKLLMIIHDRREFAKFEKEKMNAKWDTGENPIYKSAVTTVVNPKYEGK
Put plainly: Jurkat-endothelial cell adhesion assay (Jurkat EC). Conditions: Jurkat cells on IL-1 stimulated human umbilical vein endothelial cells; read-out: JK/EC (Jurkat EC Assay IC50 value range). Format: cell-based. As to the method: Jurkat-endothelial Cell Adhesion Assay:
The following assay established the activity of the present compounds in inhibiting β1-mediated cell adhesion in a representative in vitro system. This assay measures the adhesive interactions of a T-cell line, Jurkat, known to express the α4β1 integrin, to endothelial monolayers in the presence of test compounds. The test compounds were added in increasing concentrations to T-cells and then the T-cell compound mixture was added to IL-1 stimulated endothelial cell monolayers. The plates were incubated, washed and the percentage of attached cells was quantitated.
Human umbilical vein endothelial cells were purchased from Clonetics (San Diego, Calif.) at passage number 2. The cells were grown on 0.5% porcine skin gelatin pre-coated flasks (Sigma, St. Louis Mo.) in EGM-UV media (Clonetics, San Diego, Calif.) supplemented with 10% fetal bovine serum. Cells are refed every 2-3 days reaching confluence by day 4 to 6. […] The endothelial cells are not used following passage 6.
The T-cell line Jurkat was obtained from American Type Tissue Culture Collection (Rockville, Md.) and the cells were cultured in RPMI containing 10% fetal calf serum. The cells were washed twice in Hank's Balanced Salt Solution (HBSS) and resuspended in Dulbecco's Minimal Eagle's Media (DMEM) containing 2.5 mg/ml Human Serum Albumin (HSA). Jurkat cells (1×10^6 cells/ml) were stained with 10 ng/ml BCECF-AM (Molecular Probes, Eugene, Oreg.)) in HBSS without phenol red. The cells were loaded with BCECF for 60 minutes in the dark at 370C, washed 2 times, and resuspended in DMEM-HSA solution.
Confluent endothelial monolayers, grown in 96-well tissue culture plates, were stimulated for 4 hr. at 37° C. with 0.1 ng/ml (˜50 U/ml) recombinant IL-1 (Amgen, Thousand Oaks, Calif.). Following this incubation, the monolayers were washed twice with HBSS and 0.1 ml of DMEM−HSA solution was added. Jurkat cells (5×10^5 cells) were combined with the appropriate concentration of the test compound and 0.1 ml of the Jurkat cell-compound mixture was added to the endothelial cell monolayers. Generally, 100, 20, 5 and 1.25 μM compound concentrations were tested. […] The plates were placed on ice for 5 minutes to allow for Jurkat cell settling and the plates were incubated at 37° C. for 20 minutes. Following this incubation, the monolayers were washed twice with PBS containing 1 mM calcium chloride and 1 mM magnesium chloride and the plates were read using a Millipore Cytofluor 2300 (Marlboro, Mass.). Fluorescence in each well was measured as Arbitrary Fluorescence Units and percent adhesion in the absence of compound was adjusted to 100% and the % adhesion in the presence of compound was calculated. Monolayers were also fixed in 3% paraformaldehyde and evaluated microscopically to verify the adhesion. This procedure is a modification of a previously published method (Cardarelli et al., J. Biol. Chem. 269:18668-18673 (1994)).
With `O=C(O)c1ccc(NC(=O)N2CCCC(C(=O)N[C@@H](Cc3ccc(NC(=O)c4c(Cl)cccc4Cl)cc3)C(=O)O)C2)cc1` (stereo partly shown) [Example 208], the IC50 was at least 1000 nM.
Turning to `O=C(O)CC1(CC(=O)N2CCC(C(=O)N[C@@H](Cc3ccc(NC(=O)c4c(Cl)cccc4Cl)cc3)C(=O)O)CC2)CCCC1` [Example 210], the IC50 was at least 1000 nM.
Regarding `CC(C)(CC(=O)O)CC(=O)N1CCC(C(=O)N[C@@H](Cc2ccc(NC(=O)c3c(Cl)cccc3Cl)cc2)C(=O)O)CC1` [Example 211], the IC50 is at least 1000 nM.
For `O=C(O)c1cccc(C(=O)N2CCCC(C(=O)N[C@@H](Cc3ccc(NC(=O)c4c(Cl)cccc4Cl)cc3)C(=O)O)C2)c1` (stereo partly shown) [Example 205] the value was 250 to 1000 nM; for `COC(=O)CCC1(CCC(=O)N[C@@H](Cc2ccc(OCc3c(Cl)cccc3Cl)cc2)C(=O)OC)CCC(=O)N1` (stereo partly drawn) [Example 112, 2-[3-[[(1S)-1-[[4-[(2,6-Dichlorophenyl)methoxy]phenyl]methyl]-2-methoxy-2-oxoethyl]amino]-3-oxopropyl]-5-oxo-2-pyrrolidinepropanoic Acid Methyl Ester], at least 1000 nM; for `O=C(O)c1ccc2cc(C(=O)N3CCCC[C@H]3C(=O)N[C@@H](Cc3ccc(NC(=O)c4c(Cl)cccc4Cl)cc3)C(=O)O)ccc2c1` [Example 183], at least 1000 nM.
For `COC(=O)[C@H](Cc1ccc(NC(=O)c2c(Cl)cccc2Cl)cc1)NC(=O)C1CCCCN1C(=O)CCC(=O)O` (stereo partly drawn) [Example 163, 2-[[[(1S)-1-[[4-[(2,6-Dichlorobenzoyl)amino]phenyl]methyl]-2-methoxy-2-oxoethyl]amino]carbonyl]-γ-oxo-1-piperidinebutanoic Acid] the value was at least 1000 nM; for `COc1ccc(C(=O)N2CCC(C(=O)N[C@@H](Cc3ccc(NC(=O)c4c(Cl)cccc4Cl)cc3)C(=O)O)CC2)cc1OC` [Example 218], at least 1000 nM; for `O=C(O)CCC(=O)N1CCC(C(=O)N[C@@H](Cc2ccc(NC(=O)c3c(Cl)cccc3Cl)cc2)C(=O)O)CC1` [Example 209], at least 1000 nM.
The figure for `O=C(O)CCC(=O)N1CCCC(C(=O)N[C@@H](Cc2ccc(NC(=O)c3c(Cl)cccc3Cl)cc2)C(=O)O)C1` (stereo partly drawn) [Example 174, 3-[[[(1S)-1-Carboxy-2-[4-[(2,6-dichlorobenzoyl)amino]phenyl]ethyl]amino]carbonyl]-γ-oxo-1-piperidinebutanoic Acid] is 250 to 1000 nM; for `COc1ccc(C(=O)N2CCCC[C@H]2C(=O)N[C@@H](Cc2ccc(NC(=O)c3c(Cl)cccc3Cl)cc2)C(=O)O)cc1OC` [Example 180] it is at least 1000 nM.
`O=C(O)CNC(=O)N1CCC(C(=O)N[C@@H](Cc2ccc(NC(=O)c3c(Cl)cccc3Cl)cc2)C(=O)O)CC1` [Example 217]: the IC50 is at least 1000 nM.
The figure for `CC(=O)CCC(=O)N1CCCC[C@H]1C(=O)N[C@@H](Cc1ccc(NC(=O)c2c(Cl)cccc2Cl)cc1)C(=O)O` [Example 179] is 250 to 1000 nM; for `O=C(O)/C=C\C(=O)N1CCCCC1C(=O)N[C@@H](Cc1ccc(NC(=O)c2c(Cl)cccc2Cl)cc1)C(=O)O` (stereo partly shown) [Example 170] it is at least 1000 nM; for `COC(=O)[C@H](Cc1ccc(NC(=O)c2c(Cl)cccc2Cl)cc1)NC(=O)C1CCCCN1C(=O)CC(C)(C)CC(=O)O` (stereo partly shown) [Example 165] it is at most 250 nM.
Regarding `O=C(O)c1ccc2cc(C(=O)N3CCC(C(=O)N[C@@H](Cc4ccc(NC(=O)c5c(Cl)cccc5Cl)cc4)C(=O)O)CC3)ccc2c1` [Example 221], the IC50 is at least 1000 nM.
The figure for `CCOC(=O)N1CSC[C@@H]1C(=O)N[C@@H](Cc1ccc(OCc2c(Cl)cccc2Cl)cc1)C(N)=O` (relative stereo) [Example 90, [S-(R*,R*)]-4-[[[1-[[4-[(2,6-Dichlorophenyl)methoxy]phenyl]methyl]-2-amino-2-oxoethyl]amino]carbonyl]-3-thiazolidinecarboxylic Acid 3-Ethyl Ester] is at least 1000 nM; for `O=C(O)CNC(=O)N1CCCC(C(=O)N[C@@H](Cc2ccc(NC(=O)c3c(Cl)cccc3Cl)cc2)C(=O)O)C1` (stereo partly shown) [Example 202] it is at least 1000 nM; for `O=C(O)c1ccccc1C(=O)N1CCC(C(=O)N[C@@H](Cc2ccc(NC(=O)c3c(Cl)cccc3Cl)cc2)C(=O)O)CC1` [Example 219] it is at least 1000 nM.
As for `CC(C)(CC(=O)O)CC(=O)N1CCCCC1C(=O)N[C@@H](Cc1ccc(NC(=O)c2c(Cl)cccc2Cl)cc1)C(=O)O` (stereo partly shown) [Example 169], the IC50 was at least 1000 nM.
The figure for `O=C(O)c1ccc(NC(=O)N2CCC(C(=O)N[C@@H](Cc3ccc(NC(=O)c4c(Cl)cccc4Cl)cc3)C(=O)O)CC2)cc1` [Example 175, N-[[1-[[(4-Carboxyphenyl)amino]carbonyl]-4-piperidinyl]carbonyl]-4-[(2,6-dichlorobenzoyl)amino]-L-phenylalanine] is at least 1000 nM; for `COC(=O)[C@H](Cc1ccc(NC(=O)c2c(Cl)cccc2Cl)cc1)NC(=O)C1CCCCN1C(=O)CC1(CC(=O)O)CCCC1` (stereo partly shown) [Example 164] it is at least 1000 nM; for `O=C(O)/C=C/C(=O)N1CCC(C(=O)N[C@@H](Cc2ccc(NC(=O)c3c(Cl)cccc3Cl)cc2)C(=O)O)CC1` [Example 213] it is at least 1000 nM.
The figure for `O=C(C[C@@H]1CC[C@H](C(=O)O)N1Cc1ccccc1)N[C@@H](Cc1ccc(OCc2c(Cl)cccc2Cl)cc1)C(=O)O` [Example 95, (5S)-5-[2-[[(1S)-1-Carboxy-2-[4-[(2,6-dichlorophenyl)methoxy]phenyl]ethyl]amino]-2-oxoethyl]-1-(phenylmethyl)-D-proline] is at least 1000 nM.
The figure for `COCCC(=O)N1CCC(C(=O)N[C@@H](Cc2ccc(NC(=O)c3c(Cl)cccc3Cl)cc2)C(=O)O)CC1` [Example 214] is at least 1000 nM.
As for `O=C(O)CC1(CC(=O)N2CCCCC2C(=O)N[C@@H](Cc2ccc(NC(=O)c3c(Cl)cccc3Cl)cc2)C(=O)O)CCCC1` (stereo partly shown) [Example 168], the IC50 was at least 1000 nM.
For `O=C(O)/C=C\C(=O)N1CCC(C(=O)N[C@@H](Cc2ccc(NC(=O)c3c(Cl)cccc3Cl)cc2)C(=O)O)CC1` [Example 212] the value was at least 1000 nM; for `COC(=O)[C@H](Cc1ccc(NC(=O)c2c(Cl)cccc2Cl)cc1)NC(=O)C1CCCCN1C(=O)/C=C\C(=O)O` (stereo partly shown) [Example 166], at least 1000 nM; for `O=C(C[C@H]1CC[C@@H](C(=O)O)N1Cc1ccccc1)N[C@@H](Cc1ccc(OCc2c(Cl)cccc2Cl)cc1)C(=O)O` [Example 94, (5R)-5-[2-[[(1S)-1-Carboxy-2-[4-[(2,6-dichlorophenyl)methoxy]phenyl]ethyl]amino]-2-oxoethyl]-1-(phenylmethyl)-L-proline], at least 1000 nM.
For `O=C(Nc1ccc(C[C@H](NC(=O)C2CCN(C(=O)C3CCCC(C(=O)O)C3)CC2)C(=O)O)cc1)c1c(Cl)cccc1Cl` (stereo partly shown) [Example 215] the value was at least 1000 nM; for `COC(=O)CCC1(CCC(=O)N[C@@H](Cc2ccc(NC(=O)c3c(Cl)cccc3Cl)cc2)C(=O)OC)CCC(=O)N1C` (stereo partly drawn) [Example 110, 2-[3-[[(1S)-1-[[4-[(2,6-Dichlorobenzoyl)amino]phenyl]methyl]-2-methoxy-2-oxoethyl]amino]-3-oxopropyl]-1-methyl-5-oxo-2-pyrrolidinepropanoic Acid Methyl Ester], at least 1000 nM.
